The test system of series [1] is Leptocheirus plumulosus. The experiment in a line: 10-day sediment toxicity test (EPA Method 1644). Type of series: in vivo. The text has this:
The term “sediment toxicity” as used herein for drilling fluids and drill cuttings refers to EPA Method 1644: “Method for Conducting a Sediment Toxicity Test with Leptocheirus plumulosus and Non-Aqueous Drilling Fluids or Synthetic-Based Drilling Muds” and sediment preparation procedures specified in EPA Method 1646. EPA Method 1644 is published in “Analytic Methods for the Oil and Gas Extraction Point Source Category.” The 10-day Leptocheirus plumulosus toxicity test characterizing the sediment toxicity according to BAT (“Best Available Technology Economically Achievable) effluent limitations and NSPS (“New Source Performance Standards”) means the concentration (milligrams/kilogram dry sediment) of the base fluid in sediment that is lethal to 50 percent of the Leptocheirus plumulosus test organisms exposed to that concentration of the base fluids after ten days of constant exposure. The test is defined in ASTM Standard No. E1367-03 (2008) which is incorporated herein by reference.

Series [2] is described as follows: 275-day anaerobic biodegradation test (modified ISO 11734). From the text: The term “biodegradation rate” as used herein for drilling fluids and drill cuttings is in connection with the method for performing the 275-day anaerobic biodegradation test and is defined in Federal Register, Part IV Environmental Protection Agency, 40 CFR Parts 9 and […] entitled “Effluent Limitations Guidelines and New Source Performance Standards for the Oil and Gas Extraction Point Source Category”, Fed. Reg. Vol. 66, No. 14, Jan. 22, 2001, Appendix 4 to Subpart A of Part 435, incorporated herein by reference. The 275-day anaerobic biodegradation test described in Appendix 4 to Subpart A of Part 435 is based on a modification of ISO Standard No. 11734:1995 (also incorporated herein by reference) for use in a marine environment.

A short description of series [3]: Pour point (ASTM D97). Type of series: physicochemical. The text has this:
The phrase “pour point” refers to the lowest temperature at which a fluid will pour or flow. (See, e.g., ASTM International Standard Test Method D97). The results are reported in degrees Celsius. Many commercial base oils have specifications for pour point. When base oils have low pour points, the base oils are also likely to have other good low temperature properties, such as low cloud point, and low cold flow viscosity.

Series [4] in a line: Kinematic viscosity (ASTM D445-06). Type of series: physicochemical. The procedure:
The phrase “kinematic viscosity” refers to a measurement of the resistance to the flow of a fluid. Many base oils, drilling fluid compositions made from them, and the correct operation of equipment depends upon the appropriate viscosity of the fluid being used. Kinematic viscosity is determined by ASTM D445-06. The results are reported in mm^2/s or centistoke. The term “centistoke,” abbreviated “cSt,” is a unit for kinematic viscosity of a fluid (e.g., a drilling fluid), wherein 1 centistoke equals 1 millimeter squared per second (1 cSt=1 mm^2/s). It is also the ratio of the dynamic viscosity of a fluid to the fluid density. See, e.g., ASTM Standard Guide and Test Methods D 2270-04, D 445-06, D 6074, and D 2983.

A short description of series [5]: Density. Type of series: physicochemical.
A short description of series [6]: Flash point. Type of series: physicochemical.

`C=CCCCCCCCCCCCCCC` [1-hexadecene]: in series [1] (10 day, ratio reference fluid/test fluid, <1 passes), the “Sediment Toxicity L. plumulosus 10 day LC50 Compliance Ratio (Ref Fluid/Test Fluid)” value is reported as 0.35. In series [1] (in vivo), the “EPA requirement in the 10-day sediment toxicity test” value was “consistently passes”. The “275 Day Anaerobic Biodegradation % Compliance Ratio (Ref Fluid/Test Fluid)” value in series [2] (275 day, ratio reference fluid/test fluid, <1 passes) is recorded as 0.8. For the same compound, in series [2] (versus C1618 IO standard), the “EPA requirement in the 275 day anaerobic biodegradation test” value is “consistently passes”. In addition, the “Pour Point” value was 4 °C in series [3] (Table 2 and text); “+4 °C” in series [3] (Table 2 and text, listed as 1-hexadecene); 4 deg C in series [3] (Table 3, blends by ratio C16 unbranched isomerized olefin to 1-hexadecene). Moreover, in series [3] (Table 3, compared to 1-hexadecene), the “Depression in Pour Point Compared to 1-hexadecene” value came to 0 deg C. In series [4], the “Kinematic Viscosity at 40° C.” value came to 2.4 cSt. The same compound showed a Density in series [5] of 0.785 g/cc. Moreover, the “Flash Point” value in series [6] came out at 125 °C.

The record behind these values is patent publication US10060189B2, “Hexadecene synthetic drilling fluid with improved environmental properties” (priority 2014, dated 2018).
